“Also recorded” adds a separate entry of the source.
Key:
[1] = target: T1, MRGPRX2 (Homo sapiens, UniProt Q96LB1); assay: Degranulation (β-hexosaminidase release), RBL-MRGPRX2 cells; assay type: cell-based
T1 sequence (Q96LB1 1-330): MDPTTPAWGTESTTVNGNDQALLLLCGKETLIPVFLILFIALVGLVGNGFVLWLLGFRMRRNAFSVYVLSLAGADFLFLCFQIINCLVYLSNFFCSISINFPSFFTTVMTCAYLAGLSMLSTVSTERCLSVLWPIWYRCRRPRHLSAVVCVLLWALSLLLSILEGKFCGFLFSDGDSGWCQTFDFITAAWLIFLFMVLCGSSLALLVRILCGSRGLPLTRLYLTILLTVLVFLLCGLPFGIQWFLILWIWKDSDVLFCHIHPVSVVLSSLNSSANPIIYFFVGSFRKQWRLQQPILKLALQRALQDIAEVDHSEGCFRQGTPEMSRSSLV
Procedure: Having a competitive MRGPRX2 antagonist with subnanomolar potency in hand, we next studied its effects on MCs. Activation of MRGPRX2, which is highly expressed in skin MCs, results in degranulation and histamine release.[19] We therefore investigated whether PSB-172656 inhibits MRGPRX2-mediated MC activation utilizing the rat MC line RBL-2H3 recombinantly expressing the human MRGPRX2 (designated RBL-MRGPRX2). These cells were treated with two different concentrations of PSB-172656 (100 nM and 300 nM), and then exposed to different MRGPRX2 agonists, namely C48/80 (0.3 µg/mL), SP (0.3 µM), and PAMP-12 (0.1 µM), respectively. Degranulation of the cells was assayed by β-hexosaminidase release measurements.
Fig. 5 PSB-172656 blocks MRGPRX2-induced mast cell degranulation without affecting IgE-mediated responses. a RBL-MRGPRX2 cells were incubated with control (vehicle) or preincubated with PSB-172656 (100 or 300 nM), followed by stimulation with C48/80 (0.3 µg/mL), substance P (SP; 0.3 µM), or PAMP-12 (0.1 µM), and β-hexosaminidase release was measured. RBL-MRGPRX2 cells were sensitized with monoclonal anti-dinitrophenyl antibody (DNP-specific IgE), and degranulation induced by 2,4-dinitrophenylated bovine serum albumin (DNP-BSA, 10 and 30 ng/mL) was measured without or after preincubation with PSB-172656 (0.1 and 0.3 µM). […] Data are expressed as means ± SEM of 3 biological replicates. Statistical significance was determined by two-way ANOVA (Tukey’s multiple comparisons)
Rat basophilic leukemia (RBL-2H3) cells that stably expressed the human MGPRGX2 (RBL-MRGPRX2) were grown in Dulbecco’s modified Eagle’s medium (DMEM) supplemented with 10% FBS, L-glutamine (2 mM), penicillin (100 IU/mL), and streptomycin (100 µg/mL).[42]
Degranulation as determined by β-hexosaminidase release was performed as described previously.[66],[67] Briefly, RBL-MRGPRX2 cells (5 × 10^4 cells/well) were seeded into 96-well cell culture plates. After 16 h, cells were treated with PSB-172656 or solvent for 5 min in HEPES buffer containing 0.1% bovine serum albumin (BSA), and then activated with MRGPRX2 agonist (C48/80, SP, PAMP-12, or LL-37) for 30 min at 37 °C. For measurement of total β-hexosaminidase content, unstimulated cells were lyzed by Triton X-100 (0.1%). Aliquots (20 µL) of supernatant were incubated with 20 µL of 1 mM 4-nitrophenyl-N-acetyl-β-D-glucosaminide (PNAG) for 1 h at 37°C. Finally, the reaction was stopped by adding 250 µL of 0.1 M Na2CO3/0.1 M NaHCO3 buffer, and absorbance was determined with a Versamax microplate spectrophotometer (Molecular Devices, San José, CA) at a wavelength of 405 nm. The degranulation was quantitated as a percentage of β-hexosaminidase release by dividing the β-hexosaminidase in the sample by the total enzyme content. To test the antigen response, RBL-MRGPRX2 (5 × 10^4 cells/well) cells were sensitized with DNP-specific mouse IgE (SPE-7; 1 µg/mL). After 16 h, cells were preincubated in the absence or presence of respective concentrations of PSB-172656 for 5 min, followed by the stimulation of antigen (DNP-BSA, 10 and 30 ng/mL), and the degranulation was measured as described above. For degranulation in LAD2 cells, 1 × 10^4 cells/well were seeded into 96-well cell culture plates, incubated with or without PSB-172656 for 5 min, then with the MRGPRX2 agonist SP for 30 min, and degranulation was measured similarly.

[2] = test system: C48/80-induced systemic anaphylaxis; assay: Systemic anaphylactic reaction, plasma CCL2; assay type: in vivo, mouse; details: 50 mg/kg b.w., i.p.; C48/80 2 mg/kg i.p.; 4 h; listed as PSB-172656
Procedure: PSB-172656 was further investigated in a mouse model of skin inflammation,[54] determining its effects on C48/80-induced hind paw edema. […] These findings indicate a strong anti-inflammatory effect of the MRGPRX2/B2 antagonist in this mouse model.
30 min after intraperitoneal administration of PSB-172656 at a dose of 50 mg/kg b.w. or vehicle (2% DMSO), an anaphylactic reaction was induced by the intraperitoneal injection of C48/80 at a dose of 2 mg/kg b.w. (in 0.9% NaCl). The non-lethal dose of this compound was assumed based on the literature.[70],[71] The mice were then left in their cages for 4 h. Then, heparin (2500 U/mouse) and sodium thiopental at a dose of 70 mg/kg b.w. were administered intraperitoneally, and blood was collected after decapitation. The plasma concentration of CCL-2 and IL-8 was determined using an ELISA kit (catalog number: E1707Mo, E1481Mo, BT LAB, China).

effect on MC degranulation in response to C48/80 ([1]; 100 nM and 300 nM, C48/80 0.3 µg/mL): completely abolished
effect on MC degranulation in response to PAMP-12 ([1]; 100 nM and 300 nM, PAMP-12 0.1 µM): substantially inhibited
effect on MC degranulation in response to SP ([1]; 100 nM and 300 nM, SP 0.3 µM): completely abolished
IC50 ([1]; versus C48/80 (0.3 µg/mL)): 3.79 nM
IC50 ([1]; versus LL-37 (3 µM)): 8.12 nM
IC50 ([1]; versus PAMP-12 (0.1 µM)): 11.7 nM
IC50 ([1]; versus SP (0.3 µM)): 15.5 nM
Structure (SMILES): CCc1c(C(C)C)[nH]c2nc3cc(F)c(F)cc3n2c1=O [Compound 24, 3-ethyl-7,8-difluoro-2-isopropylbenzo[4,5]imidazo [1,2-a] pyrimidin-4(1H)-one]
effect on plasma CCL2 levels [2]: significantly decreased levels of CCL2; also recorded: prevented the dramatic increase in CCL2 levels

Reference: paper PMC12010006, “Subnanomolar MAS-related G protein-coupled receptor-X2/B2 antagonists with efficacy in human mast cells and disease models” (Signal Transduction and Targeted Therapy, 2025)
